Results reported in patent US5863931A, “Amidino derivatives and their use as nitric oxide synthase inhibitors” (priority 1991, dated 1999).
Like-named read-outs stand apart in the source and are kept apart here.

Key:
Constitutive NO synthase = biological target: T1, Constitutive NO synthase (Rattus norvegicus, UniProt Q62600); experiment: Constitutive NO synthase inhibition (method of Rees et al, Br. J. Pharmacol. 1990; rat aortic rings in vitro, basal tone); assay type: cell-based
T1 construct: The basal tone of the tissue is used as an indication of the activity of the constitutive NO synthase; from tissue; host or cells: rat aortic rings
Procedure: The activity of a compound as an inhibitor of the enzyme NO synthase can be determined by an assay in which a macrophage cell line (J774) is induced to express NO synthase with lipopolysaccharide (LPS) and interferon gamma and NO generated is measured by its reaction with haemoglobin or as nitrite. […] Selectivity can be determined by use of an assay based on rat aortic rings in vitro. The basal tone of the tissue is used as an indication of the activity of the constitutive NO synthase whereas LPS-induced loss of tone mediated by NO is used as an indication of the activity of the inducible enzyme in the vascular smooth muscle cells. […] Constitutive NO synthase--method of Rees et al, Br. J. Pharmacol., 101, 746-752 (1990)

Inducible NO synthase = biological target: T2, Inducible NO synthase (Rattus norvegicus, UniProt Q06518); experiment: Inducible NO synthase inhibition (method essentially according to Rees et al, Biochem. Biophys. Res. Comm. 1990; rat aortic rings, LPS-induced loss of tone); assay type: cell-based; details: for EC50 ratio: constitutive EC50 / inducible EC50
T2 construct: activity of the inducible enzyme in the vascular smooth muscle cells; from tissue; host or cells: rat aortic rings, LPS-induced (vascular smooth muscle)
Procedure: The activity of a compound as an inhibitor of the enzyme NO synthase can be determined by an assay in which a macrophage cell line (J774) is induced to express NO synthase with lipopolysaccharide (LPS) and interferon gamma and NO generated is measured by its reaction with haemoglobin or as nitrite. […] Selectivity can be determined by use of an assay based on rat aortic rings in vitro. The basal tone of the tissue is used as an indication of the activity of the constitutive NO synthase whereas LPS-induced loss of tone mediated by NO is used as an indication of the activity of the inducible enzyme in the vascular smooth muscle cells.
Inducible NO synthase--method essentially according to Rees et al, Biochem. Biophys. Res. Comm., 173, 541-547 (1990).

[1] = test system: constitutive and the inducible NO synthase; details: inhibits both constitutive and inducible NO synthase; cited from earlier work
[2] = inducible NO synthase, read-out: NO Synthase Activity Inducible EC50

| EC50 (Constitutive NO synthase) [nM] | EC50 ratio (Inducible NO synthase) | EC50 (Inducible NO synthase; [2]) [nM] | SMILES | selectivity between constitutive and inducible NO synthase [1] | EC50 (Inducible NO synthase) [nM] |
| --- | --- | --- | --- | --- | --- |
| 5100 | 36.4 | 140 | CC(=N)NCCC[C@H](N)C(=O)O.Cl [Example 1, (S)-N^5-(1-Iminoethyl)ornithine hydrochloride] |  |  |
| 4300 | 33.4 | 130 | CC(=N)NCCSC[C@@H](N)C(=O)O.Cl [Example 4, (S)-S-2-(1-Iminoethylamino)ethylcysteine hydrochloride] |  |  |

The next lines start with the compound.

| SMILES | EC50 (Constitutive NO synthase) [nM] | EC50 ratio (Inducible NO synthase) | EC50 (Inducible NO synthase; [2]) [nM] | selectivity between constitutive and inducible NO synthase [1] | EC50 (Inducible NO synthase) [nM] |
| --- | --- | --- | --- | --- | --- |
| CC(=N)NC/C=C/CC(N)C(=O)O.Cl (racemic) [Example 3, (±)-E-2-Amino-6-(1-Iminoethylamino)-hex-4-enoic acid hydrochloride] | 3100 | 9.7 | 320 |  |  |
| CN=C(N)NCCC[C@H](N)C(=O)O [L-NMMA, L-N-monomethyl-arginine] |  |  |  | non-selective |  |
| CC(=N)NCCCC[C@H](N)C(=O)O.Cl [Example 2, (S)-N^6-(1-Iminoethyl) lysine hydrochloride] | 6900 | 43.1 |  |  | 160 |
